Patent publication US20240189449A1, “LIPID NANOPARTICLES AND POLYNUCLEOTIDES ENCODING ORNITHINE TRANSCARBAMYLASE FOR THE TREATMENT OF ORNITHINE TRANSCARBAMYLASE DEFICIENCY” (ModernaTX, Inc., priority 2021, published 2024)
Marks after values point to notes of the source that are not given here.

What was measured:
CD-1 mice [1] = experiment: hEPO expression in serum after IV lipid nanoparticles with hEPO mRNA, CD-1 mice; assay type: in vivo; settings: LNP with DSPC, cholesterol, Compound I; for Mean 6 hr hEPO Concentration: serum 6 hours after injection
Protocol: To assess potency of expression and metabolic stability of lipids of the disclosure, hepatocyte protein expression (hEPO) was measured following administration to mice of a nanoparticle of the disclosure.
Lipid nanoparticles including DSPC as a phospholipid, cholesterol as a structural lipid, Compound I as a PEG lipid, an ionizable amino lipid of Formula (II), and an mRNA encoding hEPO were intravenously administered to CD-1 mice. The concentration of hEPO in serum was tested at 6 hours after injection.

CD-1 mice [2] = experiment: Parent lipid remaining in liver at 24 h, CD-1 mice (hEPO mRNA LNPs); assay type: in vivo; settings: for Approx. Percent Total Dose of Parent Lipid Remaining at 24 h: calculation assumes a 25 g mouse with a 1.5 g liver

SMILES	hEPO AUC (CD-1 mice [1])	Mean 6 hr hEPO Concentration (CD-1 mice [1]) [mIU/mL]	Parent Lipid Remaining (nmol/g liver tissue) at 24 h (CD-1 mice [2]) [nmol/g liver tissue]	Approx. Percent Total Dose of Parent Lipid Remaining at 24 h (CD-1 mice [2])
CCCCCCCCC(CCCCCC)COC(=O)CCCCCN(CCCCCCCC(=O)OC(CC)CCCCCCCC)CCCNc1c(NC)c(=O)c1=O (stereo not shown) [Compound 15]	4.31E+07	2933644	51 ± 4	53%
CCCCCCCCC(CCCCCCCC)OC(=O)CCCCCCCN(CCCCCCCC(=O)OCC(CCCCC)CCCCCCC)CCCNc1c(NC)c(=O)c1=O (stereo not shown) [Compound 16]	2.18E+07	1461176	77 ± 3	79%
CCCCCCCCC(CCCCCCCC)OC(=O)CCCCCCCN(CCCCCCCC(=O)OCCC(CCCCCC)C(C)C)CCCNc1c(NC)c(=O)c1=O (stereo not shown) [Compound 17]	2.61E+07	1777875	35 ± 5	36%
CCCCCCCCC(CCCCCCCC)OC(=O)CCCCCCCN(CCCCCCCC(=O)OCC(CCCCCCC)C(C)C)CCCNc1c(NC)c(=O)c1=O (stereo not shown) [Compound 19]	3.11E+07	2089101	73 ± 6	75%
CCCCCCCCC(CCCCCCCC)OC(=O)CCCCCCCN(CCCCCCCC(=O)OCCC(CCCC)CCCCCC)CCCNc1c(NC)c(=O)c1=O (stereo not shown) [Compound 20]	2.13E+07	1414856	65 ± 5	67%
CCCCCCCCC(CCCCCCCC)OC(=O)CCCCCCCN(CCO)CCCCCCCC(=O)OCCC(CCCCCC)CCCCCC [Compound 21]	7.29E+06	458772	13 ± 2	9%
CCCCCCC(CCCCCC)CCOC(=O)CCCCCCCN(CCO)CCCCCCCC(=O)OCCC(CCCCCC)CCCCCC [Compound 23]	1.40E+07	847586	24 ± 3	18%
CCCCCCCCC(CCCCCCCC)OC(=O)CCCCCCCN(CCCCCCCC(=O)OCCC(CCCCCC)CCCCCC)CCCNc1c(NC)c(=O)c1=O [Compound 26]	7.52E+06	496951	141 ± 15	>95%^b
CCCCCCC(CCCCCC)CCOC(=O)CCCCCCCN(CCCCCCCC(=O)OCCC(CCCCCC)CCCCCC)CCCNc1c(NC)c(=O)c1=O [Compound 28]	1.44E+07	938332	58 ± 7	60%
CCCCCCCCC(CCCCCCCC)OC(=O)CCCCCCCN(CCCCCCCC(=O)OCCC(CCCCC)CCCCC)CCCNc1c(NC)c(=O)c1=O [Compound 29]	1.23E+07	808734	66 ± 16	68%
CCCCCCCCC(CCCCCCCC)OC(=O)CCCCCCCN(CCO)CCCCCCCC(=O)OCCCC(CCCCC)CCCCC [Compound 31]	7.72E+06	517841	2 ± 0.6	<0.1%
CCCCCCCCC(CCCCCCCC)OC(=O)CCCCCCCN(CCCCCCCC(=O)OCCCC(CCCCC)CCCCC)CCCNc1c(NC)c(=O)c1=O [Compound 32]	1.63E+06	111656	69 ± 17	71%
CCCCCC(CCCCC)CCCOC(=O)CCCCCCCN(CCO)CCCCCCCC(=O)OCCCC(CCCCC)CCCCC [Compound 33]	5.89E+06	389395	0.5 ± 0.3	<0.1%
CCCCCC(CCCCC)CCCOC(=O)CCCCCCCN(CCCCCCCC(=O)OCCCC(CCCCC)CCCCC)CCCNc1c(NC)c(=O)c1=O [Compound 34]	3.01E+06	205437	12 ± 2	12%
CCCCCCCCC(CCCCCCCC)OC(=O)CCCCCCCN(CCO)CCCCCCCC(=O)OCCC1CCC(CC)CC1 (stereo not shown) [Compound 35]	1.72E+06	106485	<0.1	<0.1%
CCCCCCCCC(CCCCCCCC)OC(=O)CCCCCCCN(CCO)CCCCCCCC(=O)OCCC1CCC(CC)C1 (stereo not shown) [Compound 37]	1.25E+06	85052	<0.1	<0.1%
CCCCCCCCC(CCCCCCCC)OC(=O)CCCCCCCN(CCCCCCCC(=O)OCCC1CCC(CCC)CC1)CCCNc1c(NC)c(=O)c1=O (stereo not shown) [Compound 39]	1.94E+06	129750	4 ± 1	4%

SMILES	hEPO AUC (CD-1 mice [1])	Mean 6 hr hEPO Concentration (CD-1 mice [1]) [mIU/mL]	Parent Lipid Remaining (nmol/g liver tissue) at 24 h (CD-1 mice [2]) [nmol/g liver tissue]	Approx. Percent Total Dose of Parent Lipid Remaining at 24 h (CD-1 mice [2])
CCCCCCCCC(CCCCCCCC)OC(=O)CCCCCCCN(CCCCCCCC(=O)OCCC1CCC(CC)C1)CCCNc1c(NC)c(=O)c1=O (stereo not shown) [Compound 40]	4.64E+06	303957	3 ± 0.3	3%
CCCCCC(CCCCC)CCOC(=O)CCCCCCCN(CCCO)CCCCCCCC(=O)OCCC(CCCCC)CCCCC [Compound 42]		1428145		
CCCCCC(CCCCC)CCOC(=O)CCCCCCCN(CCCCO)CCCCCCCC(=O)OCCC(CCCCC)CCCCC [Compound 44]		1273871		
CCCCCCCCC(CCCCCCCC)OC(=O)CCCCCCCN(CCCO)CCCCCCCC(=O)OCCC(CCCC)CCCC [Compound 49]		2385524		
CCCCCCCCC(CCCCCCCC)OC(=O)CCCCCCCN(CCCCO)CCCCCCCC(=O)OCCC(CCCC)CCCC [Compound 50]		2617164		
CCCCCC(CCCCC)CCOC(=O)CCCCCCCN(CCCCCCCC(=O)OCCC(CCC)CCC)CCCNc1c(NC)c(=O)c1=O [Compound 51]	1.31E+07	1556494	4 ± 0.6	4%
CCCCC(CCCC)CCOC(=O)CCCCCCCN(CCCCCCCC(=O)OCCC(CCC)CCC)CCCNc1c(NC)c(=O)c1=O [Compound 52]	3.82E+06	564670	<1	<1%
CCCC(CCC)CCOC(=O)CCCCCCCN(CCCCCCCC(=O)OCCC(CCC)CCC)CCCNc1c(NC)c(=O)c1=O [Compound 53]	6.63E+03	130324	<1	<1%
CCCCCC(CCCCC)CCOC(=O)CCCCCCCN(CCCCCCCC(=O)OC(CCCCC)CCCCC)CCCNc1c(NC)c(=O)c1=O [Compound 57]	1.60E+07	1238977	12 ± 1	13%
CCCCCC(CCCCC)CCOC(=O)CCCCCCCN(CCCCCCCC(=O)OC(CCCC)CCCC)CCCNc1c(NC)c(=O)c1=O [Compound 58]	2.33E+07	1347883	15 ± 2	15%
CCCCCCC(CCCCCC)OC(=O)CCCCCCCN(CCCCCCCC(=O)OCCC(CCCC)CCCC)CCCNc1c(NC)c(=O)c1=O [Compound 60]	1.42E+07	1031398	8.5 ± 0.6	9 ± 0.8%
CCCCC(CCCC)CCOC(=O)CCCCCCCN(CCCCCCCC(=O)OC(CCCC)CCCC)CCCNc1c(NC)c(=O)c1=O [Compound 62]	6.51E+06	475498	1.8 ± 0.6	2 ± 0.9%
CCCCCC(CCCCC)CCOC(=O)CCCCCCCN(CCO)CCCCCCCC(=O)OCCC(CCC)CCC [Compound 67]		969620		
CCCCCC(CCCCC)OC(=O)CCCCCCCN(CCO)CCCCCCCC(=O)OCCC(CCC)CCC [Compound 68]		488014		
CCCCC(CCCC)CCOC(=O)CCCCCCCN(CCO)CCCCCCCC(=O)OCCC(CCCC)CCCC [Compound 69]		1572094		
CCCCCC(CCCCC)OC(=O)CCCCCCCN(CCO)CCCCCCCC(=O)OCCC(CCCC)CCCC [Compound 70]		1479577		
CCCCCCC(CCCCCC)OC(=O)CCCCCCCN(CCO)CCCCCCCC(=O)OCCC(CCC)CCC [Compound 71]		1921281		
